Measurements from patent publication US8829035B2, “Agent for treatment or prevention of diseases associated with activity of neurotrophic factors” (Sumitomo Chemical Company, Limited, priority 2009, dated 2014).
Structures can show the parent of a compound that is named as a salt.

test system: activity of 200 ng/mL of NGF (NXF promoter-driven luciferase in PC12 cells); assay: Luciferase reporter assay (NXF promoter) in PC12 cells: potentiation of NGF activity; type: cell-based, rat; parameters: key: +: Showed relatively weak potentiation (potentiation only exhibited at 10 μM); ++: Showed potentiation; +++: Showed particularly strong potentiation (2-fold or greater potentiation of the activity of 200 ng/mL of NGF at 1 μM); conditions: Test Example 1, relative luciferase activity vs 200 ng/mL NGF alone, overnight (approx. 16 hours)
Procedure: The forward primer 5′-[…]-3′ and the reverse primer 5′-[…]-3′ were prepared as the PCR primers according to the sequence information for the NXF gene genome sequence (Accession Nos. AB054577 and NC—000085), and the PCR method was used to isolate from approximately 5 kbp upstream from the translated region of the NXF gene promoter portion to the vicinity of the transcription start site. For this, 1 μg of mouse genomic DNA (Takara) was used as the template, and the 2-step PCR reaction was carried out for 35 cycles, the conditions for which were 95° C./1 m in the denaturing step, and 68° C./8 m in the annealing and extension steps, to obtain the PCR product. The NXF promoter fragment was inserted into the SmaI site of the pGL3 Basic vector (Promega) in the upstream of luciferase gene to prepare a reporter plasmid that would express the luciferase enzyme driven by the NXF promoter.
PC12 cells (available from the ATCC) were cultured using RPMI medium (GIBCO-BRL) with 5% FCS (GIBCO-BR) and 15% horse serum (GIBCO-BRL) added, and 1 mM in sodium pyruvate (GIBCO-BRL), at 37° C. in the presence of 5% CO2. After transfection in 10^6 of these PC12 cells for 2 days with 12 μg of the above-described reporter plasmid and 1 μg of pRC/RSV vector (Invitrogen) using the Lipofectamine 2000 reagent (Invitrogen), the medium was exchanged for fresh medium containing 40 mg/L of geneticin sulfate (GIBCO), and this was cultured continuously. Culturing was continued for approximately 1 month with medium exchange of the cultured medium containing 40 mg/L of geneticin sulfate (GIBCO) every several days, with the result that multiple colonies of the obtained cells were picked up. Among these, one of the colonies that induced luciferase activity in the presence of 40 ng/mL of NGF (Wako Pure Chemicals) was selected and used for the cells to evaluate the activity of the compounds below.
These cells were set up in 96-well plates with 80% confluence, and the luciferase reporter assay was conducted using the Promega Steady Glo luciferase assay kit. The procedure was carried out overnight (approx. 16 hours) using culture medium containing the compound, and the Steady Glo substrate solution was added to the cells in half-diluted in PBS after removal of all remaining medium containing the compound. After this was allowed to stand for 30 minutes, the respective quantity of light produced was measured with a luminometer (Envision Perkin Elmer).
The activity of the compounds for evaluation was measured as the potentiation of the activity of 200 ng/mL of NGF. For the experiment control wells, the negative control well had medium containing only a final concentration of 0.1% DMSO, the positive control well had medium containing a saturation concentration of NGF. In addition, a test well was set up containing 0.1% DMSO with 200 ng/mL of NGF added corresponding to a 0 compound concentration. When its luciferase activity was taken as a standard, the relative luciferase activity could be calculated for the test wells to which the compound solution (dissolved in DMSO and prepared to have a final DMSO concentration of 0.1%) had been added in addition to the 200 ng/mL of NGF, to find the potentiation of the activity of 200 ng/mL of NGF due to that compound.

| Structure (SMILES) | Activity (potentiation of NGF activity) |
| --- | --- |
| Cc1nc2cc(-c3nc4ccccc4o3)ccc2n1C1CCOCC1 [Ex. 11, 5-(benzoxazol-2-yl)-2-methyl-1-(tetrahydropyran-4-yl)benzimidazole] | ++ |
| c1ccc(COCc2nc3cc(-c4nc5ccccc5s4)ccc3n2-c2ccccc2)cc1 [Ex. 1, 5-(benzothiazol-2-yl)-1-phenyl-2-(phenylmethoxy)methylbenzimidazole] | + |
| Cc1nc2cc(-c3cc4ccccc4o3)ccc2n1C1CCOCC1 [Ex. 19, 5-(benzofuran-2-yl)-2-methyl-1-(tetrahydropyran-4-yl)benzimidazole] | ++ |
| c1ccc(-c2nc3cc(-c4nc5ccccc5o4)ccc3n2C2CCOCC2)cc1 [Ex. 25, 5-(benzoxazol-2-yl)-2-phenyl-1-(tetrahydropyran-4-yl)benzimidazole] | ++ |
| CCOC(=O)N1CCC(n2c(C)nc3cc(-c4nc5ccccc5o4)ccc32)CC1 [Ex. 33, 5-(benzoxazol-2-yl)-1-((1-ethoxycarbonyl)piperidine-4-yl)-2-methylbenzimidazole] | ++ |
| c1ccc(CNCc2nc3cc(-c4nc5ccccc5o4)ccc3n2C2CCOCC2)cc1 [Ex. 32, 5-(benzoxazol-2-yl)-2-benzylaminomethyl-1-(tetrahydropyran-4-yl)benzimidazole] | ++ |
| CN(C)Cc1nc2cc(-c3nc4ccccc4s3)ccc2n1C1CCOCC1 [Ex. 9, 5-(benzothiazol-2-yl)-2-(N,N-dimethylaminomethyl)-1-(tetrahydropyran-4-yl)benzimidazole] | ++ |
| COc1cccc(-n2c(C)nc3cc(-c4nc5ccccc5o4)ccc32)c1 [Ex. 31, 5-(benzoxazol-2-yl)-1-(3-methoxyphenyl)-2-methylbenzimidazole] | ++ |
| COc1ccccc1-n1c(C)nc2cc(-c3nc4ccccc4o3)ccc21 [Ex. 30, 5-(benzoxazol-2-yl)-1-(2-methoxyphenyl)-2-methylbenzimidazole] | ++ |

same assay, conditions: Test Example 4, same manner as Test Example 1, relative luciferase activity vs 200 ng/mL NGF alone

| Structure (SMILES) | Activity (potentiation of NGF activity) |
| --- | --- |
| CCCn1cnc2cc(-c3nc4cc(Cl)ccc4o3)ccc21 [Ex. 135, 5-(5-chlorobenzoxazol-2-yl)-1-n-propylbenzimidazole] | ++ |
| Cc1nc2cc(-c3nc4ccccc4o3)ccc2n1CCCN1CCOCC1 [Ex. 96, 5-(benzoxazol-2-yl)-2-methyl-1-(3-(morpholine-4-yl)propyl)benzimidazole] | ++ |
| Cc1nc2cc(-c3nc4ccccc4o3)ccc2n1C1CCC(=O)CC1 [Ex. 78, 5-(benzoxazol-2-yl)-1-(cyclohexanon-4-yl)-2-methylbenzimidazole] | ++ |
| COC(=O)c1cccc(Cn2c(C)nc3cc(-c4nc5ccccc5o4)ccc32)c1 [Ex. 117, 5-(benzoxazol-2-yl)-1-(3-methoxycarbonylphenylmethyl)-2-methylbenzimidazole] | ++ |
| C(=C\c1nc2cc(-c3nc4ccccc4o3)ccc2n1C1CCOCC1)/c1ccccc1 [Ex. 62, 5-(benzoxazol-2-yl)-2-trans-cinnam-1-(tetrahydropyran-4-yl)benzimidazole] | ++ |
| CCOC(=O)Cc1nc2cc(-c3nc4ccccc4o3)ccc2n1C1CCOCC1 [Ex. 86, 5-(benzoxazol-2-yl)-2-(ethoxycarbonylmethyl)-1-(tetrahydropyran-4-yl)benzimidazole] | ++ |
| Cc1nc2cc(-c3nc4ccccc4o3)ccc2n1CC(C)C(=O)OC(C)(C)C (stereo not shown) [Ex. 121, 5-(benzoxazol-2-yl)-2-methyl-1-(2-tert-butoxycarbonyl-n-propyl)benzimidazole] | ++ |
| Cc1nc2cc(-c3nc4cc(OC(F)(F)F)ccc4o3)ccc2n1C1CCOCC1 [Ex. 76, 5-(5-trifluoromethoxybenzoxazol-2-yl)-2-methyl-1-(tetrahydropyran-4-yl)benzimidazole] | ++ |
| Cc1nc2cc(-c3nc4ccccc4o3)ccc2n1CCNC(=O)C(F)(F)F [Ex. 109, 5-(benzoxazol-2-yl)-2-methyl-1-(2-trifluoroacetylaminoethyl)benzimidazole] | ++ |
| ClC(Cl)(Cl)c1nc2cc(-c3nc4ccccc4o3)ccc2n1C1CCOCC1 [Ex. 77, 5-(benzoxazol-2-yl)-1-(tetrahydropyran-4-yl)-2-trichloromethylbenzimidazole] | + |
| COC(=O)c1ccc(Cn2c(C)nc3cc(-c4nc5ccccc5o4)ccc32)cc1 [Ex. 113, 5-(benzoxazol-2-yl)-1-(4-methoxycarbonylphenylmethyl)-2-methylbenzimidazole] | ++ |
| Cc1nc2cc(-c3nc4cc(C(=O)O)ccc4o3)ccc2n1C1CCOCC1 [Ex. 97, 5-(5-carboxylbenzoxazol-2-yl)-2-methyl-1-(tetrahydropyran-4-yl)benzimidazole] | ++ |
| Cc1nc2cc(-c3nc4ccccc4o3)ccc2n1C1CCCc2ccccc21 (stereo not shown) [Ex. 87, 5-(benzoxazol-2-yl)-2-methyl-1-(1,2,3,4-tetrahydronaphthalen-1-yl)benzimidazole] | ++ |
| Cc1nc2cc(-c3nc4ccccc4o3)ccc2n1CCN(C)C [Ex. 130] | ++ |
| Cc1nc2cc(-c3nc4ccccc4o3)ccc2n1CC(=O)O [Ex. 92, 5-(benzoxazol-2-yl)-1-carboxymethyl-2-methylbenzimidazole] | ++ |
| Cc1nc2cc(-c3nc4ccccc4o3)ccc2n1CCC1CCOCC1 [Ex. 83, 5-(benzoxazol-2-yl)-2-methyl-1-(2-(tetrahydropyran-4-yl)ethyl)benzimidazole] | ++ |
| Cc1nc2cc(-c3nc4ccccc4o3)ccc2n1CC(=O)N1CCOCC1 [Ex. 107] | + |
| Cc1nc2cc(-c3nc4ccccc4o3)cc(C(F)(F)F)c2n1C1CCOCC1 [Ex. 94] | ++ |
| Clc1ccccc1-c1nc2cc(-c3nc4ccccc4o3)ccc2n1C1CCOCC1 [Ex. 126, 5-(benzoxazol-2-yl)-2-(2-chlorophenyl)-1-(tetrahydropyran-4-yl)benzimidazole] | ++ |
| Cc1nc2cc(-c3nc4ccccc4o3)ccc2n1CCN [Ex. 56, 1-(2-aminoethyl)-5-(benzoxazol-2-yl)-2-methylbenzimidazole hydrochloride] | ++ |
| Cc1nc2cc(-c3nc4ccccc4o3)ccc2n1Cc1ccccn1 [Ex. 79, 5-(benzoxazol-2-yl)-2-methyl-1-(2-picolyl)benzimidazole] | ++ |
| Cc1nc2cc(-c3nc4cc([N+](=O)[O-])ccc4o3)ccc2n1C1CCOCC1 [Ex. 60, 5-(5-nitrobenzoxazol-2-yl)-2-methyl-1-(tetrahydropyran-4-yl)benzimidazole] | ++ |
